Measured values published in patent US12245590B2, “Method for controlling weeds” (SUMITOMO CHEMICAL COMPANY, LIMITED, priority 2019, dated 2025).

Legend:
[1] = system: Palmer amaranth, waterhemp, kochia, common ragweed or marestail; experiment: Pot test, foliar spot treatment of weed patches with the crop growing (Example 2); type: in vivo; conditions: spot foliar treatment of 20% of pot area, 50 g/ha, 150 L/ha, 1% Agri-Dex; weeds and soybean, corn or cotton 14 days old; 21 days in greenhouse
Description: (§1) The evaluation of the herbicidal efficacy is classified into 0 to 100, where the numeral “0” indicates no or little difference in the state of emergence or growth of weeds under test at the time of examination as compared with untreated weeds, and the numeral “100” indicates the complete death of weeds under test or the complete inhibition of emergence or growth of weeds under test.
A pot is filled with soil, and then Palmer amaranth, waterhemp, kochia, common ragweed, or marestail is seeded at a corner portion of the soil, and soybean (Genuity Roundup Ready 2 Xtend), corn (Genuity Roundup Ready 2), or cotton (Genuity Roundup Ready 2 Xtend) is seeded at another corner portion of the soil. The weeds and crops are grown in a greenhouse for 14 days, and a section including vegetation patches of weeds (20% of the area on the pot) is subjected to foliar treatment with a spray liquid of saflufenacil (prepared by diluting Sharpen with water containing 1% (w/v) of adjuvant Agri-Dex) at 50 g/ha (as an application amount in a spot-treated section) and a liquid amount of 150 L/ha (as a liquid amount in a spot-treated section). Thereafter, the weeds and crops are grown in the greenhouse for 21 days. This is defined as the invention plot.

[2] = system: Palmer amaranth, waterhemp, kochia, common ragweed or marestail; experiment: Pot test, foliar spot treatment of weed patches before seeding the crop (Example 1); type: in vivo; conditions: spot foliar treatment of 20% of pot area, 50 g/ha, 150 L/ha, 1% Agri-Dex; weeds 14 days old; soybean, corn or cotton seeded immediately after; 21 days in greenhouse
Description: as §1
A pot is filled with a soil, and then Palmer amaranth, waterhemp, kochia, common ragweed or marestail is seeded at a corner portion of the soil. The weeds are grown in a greenhouse for 14 days, and a section including vegetation patches of weeds (20% of the area on the pot) is subjected to foliar treatment with a spray liquid of saflufenacil (prepared by diluting a commercially available formulation of saflufenacil (aqueous suspension concentrate containing 29.74% of saflufenacil, Sharpen, manufactured by BASF) with water containing 1% (w/v) of adjuvant Agri-Dex) at 50 g/ha (as an application amount in a spot-treated section) and a liquid amount of 150 L/ha (as a liquid amount in a spot-treated section). Immediately thereafter, soybean (Genuity Roundup Ready 2 Xtend), corn (Genuity Roundup Ready 2), or cotton (Genuity Roundup Ready 2 Xtend) is seeded in a corner portion different from vegetation patches of weeds in the soil, and grown in the greenhouse for 21 days. This is defined as the invention plot.

Q: For `CC(C)N(C)S(=O)(=O)NC(=O)c1cc(-n2c(=O)cc(C(F)(F)F)n(C)c2=O)c(F)cc1Cl` [saflufenacil], which “weed control effect of the invention plot compared with comparative plots (no crop seeded; uniform blanket treatment)” value [1] is on record?
A: excellent weed control effect

Q: And the “weed control effect of the invention plot compared with comparative plots (no crop seeded; uniform blanket treatment)” value [2]?
A: excellent weed control effect
